# According to patent US10238631B2, “Sesquiterpene derivatives and their use in inflammation or cancer treatment” (Academia Sinica, priority 2014, dated 2019):
# Values joined by “and” are separate entries in the source; they are usually repeats but may differ in a detail not shown here. Identical values can stand only once.
# Tests used:
# [1] = tested on: MDA-MB-231 lung metastasis; assay: Lung metastasis of MDA-MB-231 cells in SCID mice; format: in vivo, mouse
# Method: Female SCID mice (5 weeks old, average body weight 19.59±1.26 g) were assigned to 8 groups: PIX group (5 mg/kg paclitaxel), DETD-35-2 group (2 mg/kg DETD-35), DETD-35-10 group (10 mg/kg DETD-35). PTX-5+DETD-35-2 group (5 mg/kg paclitaxel and 2 mg/kg DETD-35 administration alternatively for eleven doses of paclitaxel (PTX) and ten doses of DETD-35 in total), tumor (vehicle) group (5% DMSO), and sham group (5% DMSO). Pre-DETD-35-10 group was the mice administered 10 mg/kg DETD-35 every two days for three doses before the i.v. injection of 1×10^6 MDA-MB-231 tumor cells at day 0. All other drug or compounds were administered i.p. every three days starting from day 1. At the end of experiment (day 71), the test mice were sacrificed by cervical dislocation. The lung, liver, kidney, and spleen organs were removed and recorded weights and calculated for organ index (% of organ weight/body weight). The number of tumor colonies on lungs of test mice was counted.
# [2] = tested on: A375-R acquired vemurafenib resistance melanoma cells; assay: MTT cell viability assay, PLX4032-resistant A375-R; format: cell-based, human; conditions: Homo sapiens; 72 h, MTT
# Method: A375-R, acquired vemurafenib resistance melanoma cell was generated from A375 parental cell and grown in same conditions as A375 cell.
# Normal or cancer cells (2×10^3 to 1×10^4 cells/well) were seeded in 96-well plate for overnight and treated with different compounds for 24 h to 72 h. Cells growth were determined by MTT-based colorimetric assays according to. Viability of the test cells treated with vehicle (0.5% DMSO) only was defined as 100% viable. Survival of cells after treatment with DETDs was calculated using the following formula: viable cell number (%)=OD570 (treated cell culture)/OD570 (vehicle control)×100.
# To study the mechanisms underlying how DETD-35 overcomes acquired resistance to BRAF inhibitor, we generated A375 cell line resistant to PLX4032 (designated A375-R). Briefly, A375 melanoma cells were seeded in T75 plate and treated with ascending concentration of PLX4032 (20, 50, 100, 250, 500, 1000, 2000 nM) through approximately 2 months and 20 passages.
# MDA-MB-231 cells = assay: Compound-drug combination assay with PTX; format: cell-based, human; conditions: 0-4 μM compound, 0-25 nM PTX
# Method: (§1) Cell proliferation was measured by MTT assay. Isobologram analysis and Chou-Talalay method was used to determine the effects of compound drug combinations. The interaction of DETDs and PLX4032 or PTX was determined by the combination index (CI), and the CI plot was generated using CompuSyn software. The combined effects of two compounds can be categorized as follows: CI=1 indicates additive interaction, CI<1 indicates synergism, and CI>1 indicates antagonism.
# To investigate whether or not DETD-35 and DETD-39 act synergistically with PTX against MDA-MB-231 cell activity, anti-proliferation assay using MTT reagent was performed to obtain the IC60 value of each compound. […] Based on the IC60 values, DETD-35 or DETD-39 ranging from 0 to 4 μM and PIX from 0 to 25 nM were used for compound-drug combination study. Classic isobologram analysis and Chou-Talalay method were conducted to investigate the synergistic effect of compound and drug. Combination index (CI) was calculated with CalcuSyn software (Version 2.0, Biosoft) and expressed as CI vs. Fa (fraction affected). CI<1 indicates synergy; CI=1 indicates additive effect; and CI>1 indicates antagonism.
# A375 melanoma cells = assay: Compound-drug combination assay with PLX4032; format: cell-based, human; conditions: DETD-35 0.1 to 1 μM, PLX4032 10 to 100 nM, 72 h
# Method: as §1
# To investigate whether or not DETD-35 show synergism with PLX4032 against A375 melanoma cells, we performed anti-proliferation assay using MTT reagent to obtain IC50 of each compound. […] The synergistic effect was quantified by combination index (CI) analysis as stated above.
# [3] = tested on: phospho-MEK and phospho-ERK in A375-R cells; assay: Western blot of MAPK signaling, A375-R; format: cell-based, human
# Method: Total cellular proteins were prepared from test cells as previously described. Protein concentration was determined by the Bradford method (Bio-Rad). Protein samples were resolved by 5% to 20% gradient SDS-PAGE and then underwent immunoblotting. Primary antibodies against ERK1/2 and GAPDH were from Santa Cruz Biotechnology (Santa Cruz, Calif., USA) and MEK, phospho-ERK1/2 and phospho-MEK were from Cell Signaling Technology (Danvers, Mass., USA). Appropriate horseradish peroxidase-conjugated secondary antibodies were used. Protein bands reacting to specific antibody were visualized by use of enhanced chemiluminescence (Amersham) with exposure to chemiluminescence light film (BioMax; Kodak Co.).
# [4] = tested on: melanoma cell lines B16-F10, MeWo, A375, A2058, HTB-68; assay: MTT cell viability assay, all melanoma cell lines; format: cell-based; conditions: 24 h, read-out: IC50 values over all types of melanoma cell lines
# Summary of the method: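 Viability is determined colorimetrically with MTT after a 24 h to 72 h compound treatment. Vehicle wells containing 0.5% DMSO define 100% viability, and treated OD570 values are expressed relative to them.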
smiles,measurement,setting,value
C=C1C(=O)O[C@H]2CC3=C[C@@H](C/C(C)=C/[C@@H](OC(=O)Cc4cccc5ccccc45)[C@H]12)OC3=O [DETD-35],body weight,[1]; 2 mg/kg group,slightly lower than other groups with no statistical difference
same,reduction of number of tumor foci in lungs vs tumor control,"[1]; post-treatment, 2 mg/kg i.p. every three days, not statistically significant",9%
same,reduction of number of tumor foci in lungs vs tumor control,"[1]; post-treatment, 10 mg/kg i.p. every three days",50%
same,reduction of number of tumor foci in lungs vs tumor control,"[1]; pretreatment, 10 mg/kg every two days, three doses before tumor cell injection",83%
same,IC50,[2],800 nM
same,"combination effect with PTX (isobologram, combination index)",MDA-MB-231 cells,acted synergistically
same,combination effect with PLX4032 (combination index),A375 melanoma cells,acted synergistically
same,"effect on MAP kinases (phospho-MEK, phospho-ERK), A375-R",[3],inhibited reactivation of MAP kinases
same,IC50,[4],1600 to 9900 nM and 2500 to 6000 nM
